Numbers after ± are expanded uncertainties.
Legend:
[1] = xn = mol fraction of the nth substance listed; settings: 293.15 K; 101 kPa; Liquid; Vibrating tube method; x2 = 0.75
[2] = refractive index (Na D-line) (dimensionless); xn = mol fraction of the nth substance listed; settings: 294.15 K; 101 kPa; Liquid; Standard Abbe refractometry; x2 = 0.75
[3] = Liquid; for mass density: 101.33 kPa, Vibrating tube method; for Normal boiling temperature: Closed cell (Static) method
[4] = refractive index (Na D-line) (dimensionless); settings: 101.33 kPa, Liquid, Standard Abbe refractometry

mass density [1] [kg/m3]	refractive index [2]	mass density ([3]; 298.15 K) [kg/m3]	Normal boiling temperature [3] [°C]	refractive index ([4]; 293.15 K)	refractive index ([4]; 298.15 K)	mass density ([3]; 293.15 K) [kg/m3]	SMILES
806.5 ± 0.5	1.4118 ± 0.0005						CC(=O)CC(C)CC(C)C (configuration not stated) [4,6-dimethyl-2-heptanone] + CC(C)CC(=O)CC(C)C
		1044.5 ± 0.6	117.90 ± 0.2	1.3721 ± 0.0004			CC(=O)O [acetic acid]
		719 ± 0.4	68.20 ± 0.2		1.3655 ± 0.0004		CC(C)OC(C)C [diisopropyl ether]
			100.90 ± 0.2	1.3711 ± 0.0006		1218.5 ± 1.4	O=CO [formic acid]
			149.10 ± 0.2	1.4025 ± 0.0006		875.9 ± 0.8	CCCCCOC(C)=O [pentyl ethanoate]
		988.1 ± 0.5	141.10 ± 0.2	1.3808 ± 0.0004			CCC(=O)O [propanoic acid]

Source: the NIST ThermoML archive (doi:10.1016/j.fluid.2011.09.014)
